Assay results published in US20220054494A1, “METHODS FOR TREATING BLADDER AND URETHRA DYSFUNCTION AND DISEASE” (University of Pittsburgh - Of the Commonwealth System of …, priority 2019, published 2022).
“Also recorded” adds a separate entry of the source.

Experiments:
Format in all cases: in vivo, rat
[1] = test system: urethral smooth muscle and external urethral sphincter (striated muscle); experiment: Transmission electron microscopy of urethral smooth muscle and external urethral sphincter; details: aged rats; oral 8-AG 5 mg/kg/day, 6 weeks
From the text: Damage to the muscles or lack of hormonal stimulation are major contributing factors to urinary incontinence, which can lead to impaired bladder, emptying, urgency, and incontinence. The methods and materials used (such as for western immunoblotting and transmission electron microscopy) are the same as Example 1 with the tissues utilized for examination of muscle and mitochondrial morphology being the proximal urethral sphincter muscle and striated muscle of the external sphincter.
Transmission electron microscopy (TEM): The other half of each urinary bladder, proximal urethra, or external urethral sphincter from each group (young, aged, aged+8-AG treatment) was fixed in cold 2.5% glutaraldehyde in 0.01 M PBS. The specimens were rinsed in PBS, post-fixed in 1% osmium tetroxide with 1% potassium ferricyanide, rinsed in PBS, dehydrated through a graded series of ethanol and propylene oxide solutions, and embedded in POLY/BED® 812 (Luft formulations). Semi-thin (300 nm) sections were cut on a LEICA® Reichart Ultracut, stained with 0.5% Toluidine Blue in 1% sodium borate and examined under the light microscope. Ultrathin sections (65 nm) were stained with uranyl acetate as well as Reynold's lead citrate and examined on a JEOL 1400 transmission electron microscope with a side mount AMT 2k digital camera (Advanced Microscopy Techniques, Danvers, Mass.).

[2] = test system: mitofusin 2 (MFN2); experiment: Western immunoblotting, mitofusin 2; details: aged rats; oral 8-AG 5 mg/kg/day, 6 weeks
Protocol: Western immunoblotting: One half of each bladder preparation was homogenized using Lysing Matrix D in a FastPrep 24 instrument (MP Biomedicals, Solon, Ohio) in HBSS (5 mM KCl, 0.3 mM KH2PO4, 138 mM NaCl, 4 mM NaHO3, 0.3 mM Na2HCO3, 0.3 mM Na2HPO4, 5.6 mM glucose and 10 mM Hepes, pH 7.4) containing complete protease inhibitor cocktail (1 tablet/10 ml, ROCHE®, Indianapolis, Ind.)) and phosphatase inhibitor cocktail (SIGMA®, 1:100). After centrifugation (13000 rpm; 15 min at 4° C.), the membrane protein fraction was prepared by suspending the membrane pellets in lysis buffer containing 0.3 M NaCl, 50 mM Tris-HCl (pH 7.6) and 0.5% Triton X-100 and the same concentration of protease inhibitors as above. The suspensions were incubated on ice and centrifuged (13000 rpm; 15 min at 4° C.). The protein concentrations of the combined supernatants were determined using the PIERCE® BCA protein assay (THERMO SCIENTIFIC®, Rockford, Ill.). […] As a loading control, total protein per sample was determined using Bio-Rad® Stain Free SDS-PAGE gel technology. UV-activated protein fluorescence was imaged on a CHEMIDOC® MP (BIO-RAD®). […] The volume (intensity) of each protein species was determined and normalized to total protein using Image Lab software (BIO-RAD®).

[3] = test system: bladder vasculature; experiment: Ribbon-scanning confocal microscopy of bladder vasculature perfused with fluorescent beads; details: aged rats
From the text: Bladders that had been perfused transcardially with PBS and containing 20 nm yellow-green fluorescent beads (THERMO FISHER™, F8787) to highlight the vasculature were fixed then cleared rapidly by removing lipids and dissolving light-absorbing chromophores within the tissue. Clearing the tissue increased the maximum depth of confocal imaging to many millimeters. At this stage, tissue was directly imaged for the presence of genetically expressed reporter proteins or underwent staining using immunohistochemistry (IHC) or molecular dyes. Using this method, images were acquired through bladders (and other tissues) that are 5000 micrometers thick. Volumetric data are acquired using the Caliber ID RS-G4 ribbon scanning confocal microscope, which acquired large-area images 20-40 times faster than other commercially available systems with a high nA (1.0) long working distance (8 mm) low magnification (20×) by NIKON™ Inc (Tokyo, Japan). Quantitative changes in vascular structures were compared with the volume and surface area of each bladder and of the various tissue subtypes using these methods (UT; suburothelium; mesenchyme). These methods afforded the advantage of interrogating whole tissues in a three-dimensional environment and in combination with IHC without the need to section.
Vascular Changes: Bladders that had been perfused transcardially with PBS buffer containing 20 nm yellow-green fluorescent beads (THERMO FISHER®, F8787) to highlight the vasculature were fixed then cleared by removing lipids and dissolving light-absorbing chromophores within the tissue. Volumetric data were acquired using a Caliber ID RS-G4 ribbon scanning confocal microscope (NIKON® Inc, Tokyo, Japan), which can acquire large-area images (uses a high nA (1.0) long working distance (8 mm) with low magnification (20×)). This affords the advantage of interrogating whole tissues in a three-dimensional environment without the need to section. Real-time blood perfusion (1 mm3 tissue) was accomplished using a BLF22D laser Doppler flowmeter (Transonic Systems, Inc) with a surface probe (TypeS-APLPHS) applied to the serosal surface of the bladder (apex and neck) wall using Doppler light shift from moving RBCs to analyze flow by the Bonner algorithm. This method gives robust, non-invasive microvascular flow signals in the bladder wall of anesthetized rats.

[4] = chronic 8-AG treatment (Examples 1-2)

Nc1nc2[nH]c(N)nc2c(=O)[nH]1 [8-AG, 8-Aminoguanine]
external urethral sphincter (striated muscle) and mitochondrial morphology [1]: restored to a younger state; also recorded: reversed to a younger state
urethral smooth muscle and mitochondrial morphology [1]: restored to a younger state; also recorded: reversed to a younger state
mitofusin 2 (MFN2) in bladder mucosa [2]: reversed or restored to levels similar to the younger state; also recorded: restored changes similar to a younger state
ischemic appearance of bladder tissue [3, 4]: no longer appeared ischemic
tortuosity of bladder vessels [3, 4]: restored to a younger state; also recorded: reduced the number of tortuous vessels
ischemic appearance of bladder tissue ([3]; oral 8-AG 5 mg/kg/day, 6 weeks): no longer appeared ischemic
vascular tortuosity / tortuous vessels in bladder ([3]; oral 8-AG 5 mg/kg/day, 6 weeks): reduced the number of tortuous vessels; also recorded: restored to a younger state
